Test results as given in ChEMBL document CHEMBL3217471, “Prenyltransferase Inhibitors: Treating Human Ailments from Cancer to Parasitic Infections” (Medchemcomm, 2013).

Key:
[1] = target: Geranylgeranyl transferase type I (Homo sapiens, UniProt P49354+P53609); test: Inhibition of human GGTase1 in human Burkitt lymphoma (Daudi) cell supernatant using [3H]geranylgeranyl
[2] = target: T1, Protein farnesyltransferase (Homo sapiens, UniProt P49354+P49356); test: Inhibition of human recombinant FTase using [3H]farnesyldiphosphate; assay type: protein-complex assay
[3] = Inhibition of rat RabGGTase using [3H]GGPP by scintillation counting
[4] = Inhibition of human RabGGTase using [3H]GGPP by scintillation counting
[5] = species on record: Homo sapiens; test: Selectivity ratio of IC50 for human GGTase 1 in human Burkitt lymphoma (Daudi) cell supernatant to IC50 for human recombinant FTase
[6] = target: T1, Protein farnesyltransferase; test: Binding affinity to FTase (unknown origin)

Compound | IC50 [1] | IC50 [2] | also measured
CC(C)[C@@H](CO[C@@H](Cc1ccccc1)C(=O)N[C@@H](CCS(C)(=O)=O)C(=O)O)NC[C@@H](N)CS | 50 nM | 1.8 nM | –
NC(=O)N1CCC(CC(=O)N2CCC([C@H]3c4ncc(Br)cc4CCc4cc(Cl)cc(Br)c43)CC2)CC1 [LONAFARNIB] | > 50000 nM | – | –
O=C(O)C(Cl)(Cc1cccnc1)P(=O)(O)O (configuration not stated) | – | – | IC50 [3]: 16400 nM
O=C(O)C(O)(Cc1cccnc1)P(=O)(O)O (configuration not stated) | – | – | IC50 [3]: 24100 nM; IC50 [4]: 600000 nM
O=C(NCCCn1ccnc1)[C@H]1CN([C@@H]2c3ccc(Cl)cc3CCc3cc(Br)cnc32)CCN1C(=O)NC1CCCCC1 | – | 0.4 nM | –
Cc1ccccc1S(=O)(=O)N1[C@H](C(C)(C)C)C[C@@H](C(=O)O)[C@@H]1c1ccc(Cl)cc1 | 466 nM | > 50000 nM | Ratio IC50 [5]: 100
O=C(O)C(O)(Cc1cnc2ccccn12)P(=O)(O)O (single isomer, unassigned; (+)) [(2-HYDROXY-3-IMIDAZO[1,2-A]PYRIDIN-3-YL-2-PHOSPHONOPROPIONIC ACID (ENANTIONMERS)] | – | – | IC50 [3]: 1300 nM
Cn1cncc1[C@@](N)(c1ccc(Cl)cc1)c1ccc2c(c1)c(-c1cccc(Cl)c1)cc(=O)n2C [TIPIFARNIB] | > 50000 nM | – | –
N#Cc1ccc2cc1Oc1ccc3c(c1)[C@@H](CCC3)N1CC[C@@H](NCc3cncn3C2)C1=O [(1R,5R)-30-OXO-19-OXA-2,6,10,12-TETRAAZAHEXACYCLO[18.6.2.1^{2,5}.1^{14,18}.0^{8,12}.0^{23,27}]TRIACONTA-8,10,14(29),15,17,20(28),21,23(27)-OCTAENE-17-CARBONITRILE (STRUCTURAL MIX)] | – | 0.02 nM | –
CC(C)=CCC/C(C)=C/CC/C(C)=C/CO[P@@](=O)(O)OP(=O)(O)O [FARNESYL DIPHOSPHATE] | – | – | Kd [6]: 2 nM

Now from value to molecule, other results behind:

IC50 [1] | IC50 [2] | Compound | also measured
9.5 nM | 53000 nM | Cc1nc[nH]c1CN1CCN(C(=O)N[C@@H](CC(C)C)C(=O)O)[C@@H](Cc2ccccc2)C1=O [GGTI-2418] | Ratio IC50 [5]: > 5000
50 nM | – | CSCC[C@H](NC(=O)c1ccc(NC[C@@H](N)CS)cc1-c1ccccc1)C(=O)O | –
> 1000 nM | 1.35 nM | N#Cc1ccc2c(c1)CN(S(=O)(=O)c1cccs1)[C@@H](Cc1ccccc1)CN2Cc1ncc[nH]1 | –
> 99500 nM | 6 nM | COc1ccc(S(=O)(=O)N2Cc3cc(C#N)ccc3N(Cc3cncn3C)C[C@H]2Cc2ccccc2)cc1 | IC50 [3]: 724 nM
> 99500 nM | > 9700 nM | COc1ccc(S(=O)(=O)N2Cc3cc(-c4ccc(C#N)o4)ccc3N(Cc3cncn3C)C[C@H]2Cc2ccc(OC(=O)NCc3ccccc3)cc2)cc1 | IC50 [3]: 42 nM
– | 0.39 nM | Cn1cncc1CN(Cc1cccc(C#N)c1)c1ccc(C#N)c(-c2cccc3ccccc23)c1 | –
5 nM | 25 nM | CC(C)C[C@H](NC(=O)c1ccc(NC[C@@H](N)CS)cc1-c1ccccc1)C(=O)O | –
21 nM | 5600 nM | Cc1ccccc1-c1cc(NCc2c[nH]cn2)ccc1C(=O)N[C@@H](CC(C)C)C(=O)O | Ratio IC50 [5]: > 250
